Article PMC11956005 (Journal of Medicinal Chemistry, 2025)
Where no end group is shown, it is not given here. [ ]: non-standard residue; d: D form. The star is where a group is joined. X1 = CCCCCCCCCCCCCCCC(=O)N[C@@H](CCC(=O)NCCCC[C@H](NC(=O)CCOCCOCCOCCOCCNC(=O)CNC(=O)CCN1C(=O)CC(*)C1=O)C(=O)NCCOCCOCCOCCOCCC(=O)N[C@@H](CCCCNC(=O)CC[C@H](NC(=O)CCCCCCCCCCCCCCCCC(=O)O)C(=O)O)C(=O)OC)C(=O)O; Aib = CC(C)(N)C(=O)O

Experiments:
[1] = native GLP-1; cited from earlier work
[2] = system: db/db mice; experiment: Blood glucose control after a single subcutaneous dose in db/db mice; assay type: in vivo, mouse; details: single s.c. dose, 72 h postinjection

Compound | intravenous half-life [1] [min] | blood sugar reduction (Δglucose from baseline) [2] [mmol/L]
CC[C@H](C)[C@H](NC(=O)[C@H](Cc1ccccc1)NC(=O)[C@H](CCC(=O)O)NC(=O)[C@H](CCCCN)NC(=O)[C@H](C)NC(=O)[C@H](C)NC(=O)[C@H](CCC(N)=O)NC(=O)CNC(=O)[C@H](CCC(=O)O)NC(=O)[C@H](CC(C)C)NC(=O)[C@H](Cc1ccc(O)cc1)NC(=O)[C@H](CO)NC(=O)[C@H](CO)NC(=O)[C@@H](NC(=O)[C@H](CC(=O)O)NC(=O)[C@H](CO)NC(=O)[C@@H](NC(=O)[C@H](Cc1ccccc1)NC(=O)[C@@H](NC(=O)CNC(=O)[C@H](CCC(=O)O)NC(=O)[C@H](C)NC(=O)[C@@H](N)Cc1c[nH]cn1)[C@@H](C)O)[C@@H](C)O)C(C)C)C(=O)N[C@@H](C)C(=O)N[C@@H](Cc1c[nH]c2ccccc12)C(=O)N[C@@H](CC(C)C)C(=O)N[C@H](C(=O)N[C@@H](CCCCN)C(=O)NCC(=O)N[C@@H](CCCN=C(N)N)C(=O)NCC(=O)O)C(C)C [GLP-1, glucagon-like peptide-1] | 1.5 to 2 | 
H[Aib]EGTFTSDVSSYLEGQAAKEFIAWLVRGRGGGGSGGGGSGGGGSGC(X1) [TE-8131] |  | -8.2 ± 1.4
